Measurements reported in PubChem BioAssay AID330 (DTP/NCI, 2004).
Where “and” joins values, the source holds several entries; their conditions need not be identical. Equal values may be shown once. Inconclusive results and toxic doses are left out.

Tested on: P388 leukemia ip, CD2F1 mice, survival T/C
Assay: NCI In Vivo Anticancer Drug Screen. Data for tumor model P388 Leukemia (intraperitoneal) in CD2F1 (CDF1) mice
Conditions: endpoint: median survival time, higher = longer survival
How it was run: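 Mice carrying the transplanted tumor received test compound or vehicle. Survival was recorded in each group, and the value is the treated-group measurement divided by that of the vehicle-treated control group.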

[1] = dose: 60.0 mg/kg/injection, schedule: Q01DX005 (ip), vehicle: saline with Tween-80
[2] = dose: 120.0 mg/kg/injection, schedule: Q01DX005 (ip), vehicle: saline with Tween-80
[3] = dose: 200.0 mg/kg/injection, schedule: Q01DX005 (ip), vehicle: saline with Tween-80
[4] = dose: 50.0 mg/kg/injection, schedule: Q01DX001 (ip), vehicle: Klucel (hydroxypropylcellulose) (HPC)
[5] = dose: 50.0 mg/kg/injection, schedule: Q01DX005 (ip), vehicle: Klucel (hydroxypropylcellulose) (HPC)
[6] = dose: 100.0 mg/kg/injection, schedule: Q01DX005 (ip), vehicle: Klucel (hydroxypropylcellulose) (HPC)
[7] = dose: 200.0 mg/kg/injection, schedule: Q01DX005 (ip), vehicle: Klucel (hydroxypropylcellulose) (HPC)
[8] = dose: 50.0 mg/kg/injection, schedule: Q01DX005 (ip), vehicle: saline with Tween-80
[9] = dose: 100.0 mg/kg/injection, schedule: Q01DX005 (ip), vehicle: saline with Tween-80

COc1ccc(CCN(C)CCCC(C#N)(c2ccc(OC)c(OC)c2)C(C)C)cc1OC (configuration not stated)
T/C (dose: 1.0 mg/kg/injection, schedule: Q02HX018 (sc), vehicle: water): 99 % of control | T/C (dose: 2.0 mg/kg/injection, schedule: Q02HX018 (sc), vehicle: water): 99 % of control | T/C (dose: 4.0 mg/kg/injection, schedule: Q02HX006 (sc), vehicle: saline with Tween-80): 100 % of control | T/C (dose: 4.0 mg/kg/injection, schedule: Q02HX018 (sc), vehicle: water): 103 % of control | T/C (dose: 8.0 mg/kg/injection, schedule: Q02HX006 (sc), vehicle: saline with Tween-80): 96 % of control | T/C (dose: 8.0 mg/kg/injection, schedule: Q02HX018 (sc), vehicle: water): 110 % of control | T/C (dose: 8.0 mg/kg/injection, schedule: Q03HX006 (ip), vehicle: saline): 104 % of control | T/C (dose: 16.0 mg/kg/injection, schedule: Q02HX006 (sc), vehicle: saline with Tween-80): 106 % of control | T/C (dose: 16.0 mg/kg/injection, schedule: Q02HX018 (sc), vehicle: water): 108 % of control | T/C (dose: 16.0 mg/kg/injection, schedule: Q03HX006 (ip), vehicle: saline): 101 % of control | T/C (dose: 32.0 mg/kg/injection, schedule: Q02HX006 (sc), vehicle: saline with Tween-80): 82 % of control | T/C (dose: 32.0 mg/kg/injection, schedule: Q03HX006 (ip), vehicle: saline): 103 % of control | T/C (dose: 64.0 mg/kg/injection, schedule: Q02HX006 (sc), vehicle: saline with Tween-80): 19 % of control

NC(=O)c1c(-c2ccccc2)cn2c(C(=O)O)ccnc12
T/C [1]: 98 % of control | T/C [2]: 98 % of control | T/C (dose: 240.0 mg/kg/injection, schedule: Q01DX005 (ip), vehicle: saline with Tween-80): 102 % of control

[N-]=[N+]=Nc1ccccc1C(=O)NCCNC(=O)c1ccccc1N=[N+]=[N-]
T/C (dose: 6.25 mg/kg/injection, schedule: Q01DX005 (ip), vehicle: saline with Tween-80): 94 % of control | T/C (dose: 12.5 mg/kg/injection, schedule: Q01DX005 (ip), vehicle: saline with Tween-80): 91 % of control | T/C [3]: 87 % of control

Fc1ccc(CSC(=S)Nc2ccc(F)cc2)cc1
T/C (dose: 50.0 mg/kg/injection, schedule: Q01DX009 (ip), vehicle: suspension in saline): 108 % of control | T/C (dose: 100.0 mg/kg/injection, schedule: Q01DX009 (ip), vehicle: suspension in saline): 103 % of control | T/C (dose: 200.0 mg/kg/injection, schedule: Q01DX009 (ip), vehicle: suspension in saline): 108 % of control

COc1cc(/C=C(\Cc2ccc(OC)c(OCc3ccccc3)c2)[N+](=O)[O-])ccc1OCc1ccccc1
T/C (dose: 50.0 mg/kg/injection, schedule: Q01DX009 (ip), vehicle: Klucel (hydroxypropylcellulose) (HPC)): 89 % of control | T/C (dose: 100.0 mg/kg/injection, schedule: Q01DX009 (ip), vehicle: Klucel (hydroxypropylcellulose) (HPC)): 87 % of control | T/C (dose: 200.0 mg/kg/injection, schedule: Q01DX009 (ip), vehicle: Klucel (hydroxypropylcellulose) (HPC)): 88 % of control

Oc1ccc(Nc2ccc(N(CCCl)CCCl)cc2)c2ccccc12
T/C (dose: 6.25 mg/kg/injection, schedule: Q01DX001 (ip), vehicle: Klucel (hydroxypropylcellulose) (HPC)): 123 % of control | T/C [4]: 192 % of control and 195 % of control

CN1CCc2cc3c(cc2C(=O)Cc2ccc4c(c2CO1)OCO4)OCO3
T/C (dose: 2.75 mg/kg/injection, schedule: Q01DX005 (ip), vehicle: Klucel (hydroxypropylcellulose) (HPC)): 99 % of control | T/C (dose: 5.5 mg/kg/injection, schedule: Q01DX005 (ip), vehicle: Klucel (hydroxypropylcellulose) (HPC)): 94 % of control | T/C (dose: 11.0 mg/kg/injection, schedule: Q01DX005 (ip), vehicle: Klucel (hydroxypropylcellulose) (HPC)): 96 % of control | T/C (dose: 22.0 mg/kg/injection, schedule: Q01DX005 (ip), vehicle: Klucel (hydroxypropylcellulose) (HPC)): 99 % of control

CCCCCCCCCCCC1CCCC(C)N1 (configuration not stated)
T/C (dose: 12.5 mg/kg/injection, schedule: Q01DX005 (ip), vehicle: Klucel (hydroxypropylcellulose) (HPC)): 104 % of control | T/C (dose: 25.0 mg/kg/injection, schedule: Q01DX005 (ip), vehicle: Klucel (hydroxypropylcellulose) (HPC)): 100 % of control | T/C [5]: 101 % of control

COc1ccc(Cc2cc3c(cc2OCC(=O)NN)OCO3)cc1
T/C [5]: 89 % of control | T/C [6]: 88 % of control | T/C [7]: 91 % of control

CNC(=S)c1cccc(-c2ccccn2)n1
T/C (dose: 12.5 mg/kg/injection, schedule: Q04DX003 (ip), vehicle: Klucel (hydroxypropylcellulose) (HPC)): 104 % of control | T/C (dose: 25.0 mg/kg/injection, schedule: Q04DX003 (ip), vehicle: Klucel (hydroxypropylcellulose) (HPC)): 113 % of control | T/C (dose: 50.0 mg/kg/injection, schedule: Q04DX003 (ip), vehicle: Klucel (hydroxypropylcellulose) (HPC)): 108 % of control and 91 % of control

Nc1ncnc2c1ncn2C(C=O)OC(C=O)CO (configuration not stated)
T/C (dose: 4.4 mg/kg/injection, schedule: Q04DX003 (ip), vehicle: saline): 118 % of control | T/C (dose: 6.6 mg/kg/injection, schedule: Q04DX003 (ip), vehicle: saline): 118 % of control | T/C (dose: 9.38 mg/kg/injection, schedule: Q04DX003 (ip), vehicle: saline): 177 % of control | T/C (dose: 12.5 mg/kg/injection, schedule: Q01DX009 (ip), vehicle: saline): 150 % of control | T/C (dose: 25.0 mg/kg/injection, schedule: Q01DX009 (ip), vehicle: saline): 186 % of control | T/C (dose: 37.5 mg/kg/injection, schedule: Q04DX003 (ip), vehicle: saline): 118 % of control | T/C (dose: 75.0 mg/kg/injection, schedule: Q04DX003 (ip), vehicle: saline): 209 % of control

CC(C)(C)N=C(CCSc1ccccc1)Nc1c(Cl)cccc1Cl
T/C (dose: 50.0 mg/kg/injection, schedule: Q01DX009 (ip), vehicle: saline with Tween-80): 100 % of control | T/C (dose: 100.0 mg/kg/injection, schedule: Q01DX009 (ip), vehicle: saline with Tween-80): 105 % of control | T/C (dose: 200.0 mg/kg/injection, schedule: Q01DX009 (ip), vehicle: saline with Tween-80): 96 % of control

CCCCCCCC(=O)NCCCC(C)Nc1cc(OC)cc2cccnc12 (configuration not stated)
T/C [1]: 106 % of control | T/C [2]: 99 % of control

CCN(CC)CCOCc1cccc2c(=O)cc(-c3ccccc3)oc12
T/C (dose: 50.0 mg/kg/injection, schedule: Q01DX009 (ip), vehicle: saline): 105 % of control | T/C (dose: 100.0 mg/kg/injection, schedule: Q01DX009 (ip), vehicle: saline): 101 % of control

Cc1nc2ccccc2c2c1C(=O)c1ccccc1-2
T/C (dose: 100.0 mg/kg/injection, schedule: Q04DX002 (ip), vehicle: Klucel (hydroxypropylcellulose) (HPC)): 96 % of control | T/C (dose: 200.0 mg/kg/injection, schedule: Q04DX002 (ip), vehicle: Klucel (hydroxypropylcellulose) (HPC)): 89 % of control | T/C (dose: 400.0 mg/kg/injection, schedule: Q04DX002 (ip), vehicle: Klucel (hydroxypropylcellulose) (HPC)): 89 % of control

CC(=O)c1c(-c2ccc(F)cc2)c(-c2ccc(F)cc2)nn(CCO)c1=O
T/C [8]: 98 % of control | T/C [9]: 100 % of control | T/C [3]: 98 % of control

CCn1c2ccccc2c2cc(N)c(N=Nc3ccc(-c4ccc(N)c(OC)c4)cc3OC)cc21
T/C (dose: 100.0 mg/kg/injection, schedule: Q04DX003 (ip), vehicle: Klucel (hydroxypropylcellulose) (HPC)): 94 % of control | T/C (dose: 200.0 mg/kg/injection, schedule: Q04DX003 (ip), vehicle: Klucel (hydroxypropylcellulose) (HPC)): 95 % of control | T/C (dose: 400.0 mg/kg/injection, schedule: Q04DX003 (ip), vehicle: Klucel (hydroxypropylcellulose) (HPC)): 88 % of control

COc1ccc2c(c1OC)C(=O)OC2C1c2cc3c(cc2CC[N+]1(C)C)OCO3 (configuration not stated)
T/C (dose: 12.5 mg/kg/injection, schedule: Q01DX001 (ip), vehicle: Klucel (hydroxypropylcellulose) (HPC)): 88 % of control | T/C (dose: 25.0 mg/kg/injection, schedule: Q01DX001 (ip), vehicle: Klucel (hydroxypropylcellulose) (HPC)): 92 % of control | T/C [4]: 87 % of control

CCCc1nc(N)[nH]c(=O)c1I
T/C [5]: 88 % of control | T/C [6]: 95 % of control | T/C [7]: 106 % of control

COCCC(=O)SCc1ccccc1
T/C [8]: 103 % of control | T/C [9]: 96 % of control | T/C [3]: 107 % of control

COc1cccc2c1C(=O)c1c(O)c3c(c(O)c1C2=O)CC(O)(C(C)=O)CC3OC1CC(NC(=O)C(F)(F)F)C(OC(=O)c2ccc([N+](=O)[O-])cc2)C(C)O1 (configuration not stated)
T/C (dose: 3.13 mg/kg/injection, schedule: Q04DX003 (ip), vehicle: distilled water + Tween-80): 102 % of control and 98 % of control | T/C (dose: 6.25 mg/kg/injection, schedule: Q04DX003 (ip), vehicle: distilled water + Tween-80): 101 % of control and 100 % of control | T/C (dose: 12.5 mg/kg/injection, schedule: Q04DX003 (ip), vehicle: distilled water + Tween-80): 99 % of control and 97 % of control | T/C (dose: 25.0 mg/kg/injection, schedule: Q04DX003 (ip), vehicle: distilled water + Tween-80): 111 % of control and 108 % of control | T/C (dose: 50.0 mg/kg/injection, schedule: Q04DX003 (ip), vehicle: distilled water + Tween-80): 95 % of control and 100 % of control
